From patent US5258286A, “Method of terminating isocitrate dehydrogenase reaction” (Oriental Yeast Co., Ltd., priority 1985, dated 1993)

Test system: iCDH (isocitrate dehydrogenase)
Details: EDTA concentration of 5 mM; 0.4 mM MgCl2, 1.6 mM isocitric acid, 1 mM NADP+, 0.1M triethanolamine hydrochloride pH 8.5, 25° C.; FIG. 1
Experimental: A varied amount of EDTA was added to 3 ml of a 0.1M triethanolamine hydrochloride solution (pH 8.5) containing the above-listed ingredients to provide an EDTA concentration of 0 to 10 mM. Each of the resulting mixtures was kept at a temperature of 25° C., and admixed with 20 μl of iCDH of about 3 u/ml, followed by measurement of the iCDH activity based on an increase in absorption at 340 nm by spectrophotometry.

O=C(O)CN(CCN(CC(=O)O)CC(=O)O)CC(=O)O [EDTA]
iCDH activity: completely loses its activity
